Experimental data: US9556121B2, “Pyridyloxyalkyl carboxamides and use thereof as endoparasiticides and nematicides” (BAYER CROPSCIENCE AG, priority 2012, dated 2017)

Key:
Assay type in all cases: in vivo
Haemonchus contortus = Haemonchus contortus test (HAEMCO), larval kill; details: for effect (kill in %): application rate 20 ppm, after 5 days, about 40 larvae; for inhibition at 20 ppm: Haemonchus contortus, 120 h, HAEMCO, 5 dat
Description: Haemonchus contortus Test (HAEMCO)
(§1) Solvent: dimethyl sulphoxide
(§2) To produce a suitable preparation of active compound, 10 mg of active compound are mixed with 0.5 ml of dimethyl sulphoxide, and the concentrate is diluted with Ringer solution to the desired concentration.
Vessels containing the active compound preparation of the desired concentration are populated with about 40 larvae of the red stomach worm (Haemonchus contortus).
(§3) After 5 days, the kill in % is determined. 100% means that all of the larvae have been killed; 0% means that none of the larvae have been killed.

Meloidogyne incognita = Meloidogyne incognita test (MELGIN), gall formation on lettuce; details: application rate 20 ppm, after 14 days, sand, egg/larvae suspension
Description: Meloidogyne incognita Test (MELGIN)
Solvent: 125.0 parts by weight of acetone
To prepare a suitable active compound preparation, 1 part by weight of active compound is mixed with the stated amount of solvent and the concentrate is diluted with water to the desired concentration.
Vessels are filled with sand, active compound solution, an egg/larvae suspension of the root-knot nematode (Meloidogyne incognita) and lettuce seeds. The lettuce seeds germinate and the plants develop. On the roots, galls are formed.
After 14 days, the nematicidal effect in % is determined by the formation of galls. 100% means that no galls have been found; 0% means that the number of galls on the treated plants corresponds to the untreated control.

Cooperia curticei = Cooperia curticei test (COOPCU), larval kill; details: for effect (kill in %): after 5 days, about 40 nematode larvae; for inhibition at 20 ppm: Cooperia curticei, 120 h, COOPCU, 5 dat
Description: Cooperia curticei Test (COOPCU)
as §1, §2
Vessels containing the active compound preparation of the desired concentration are populated with about 40 nematode larvae (Cooperia curticei).
as §3

SMILES | effect (kill in %) (Haemonchus contortus) [%] | effect (kill in %) (Cooperia curticei; application rate 20 ppm) [%] | also measured
O=C(NC1(COc2ncc(C(F)(F)F)cc2Cl)CC1)c1ccccc1[N+](=O)[O-] [1-195] | 80 |  | 
O=C(NC1(COc2ccc(C(F)(F)F)cn2)CC1)c1cccnc1Cl [1-177] |  |  | nematicidal effect in % (formation of galls) (Meloidogyne incognita): 90%
O=C(NCCOc1ccc(C(F)(F)F)cn1)c1c(F)cccc1F [1-45] | 90 |  | effect (kill in %) (Cooperia curticei; application rate 100 ppm): 80%
O=C(NCCOc1ncc(Cl)cc1Cl)c1sccc1I [1-22] | 100 |  | 
CC(COc1ccc(Cl)cc1Cl)NC(=O)c1ccccc1C(F)(F)F (stereo not shown) [4-2, reference compound] |  |  | inhibition at 20 ppm (Cooperia curticei): 0%
O=C(NCCOc1ncc(C(F)(F)F)cc1Cl)c1ccccc1Cl [1-26] | 100 | 80 | 
O=C(NC1(COc2ccc(C(F)(F)F)cn2)CC1)c1ccccc1[N+](=O)[O-] [1-196] | 90 |  | 
N#Cc1cnc(OCCNC(=O)c2c(F)cccc2F)c(F)c1 [1-189] |  |  | nematicidal effect in % (formation of galls) (Meloidogyne incognita): 90%
O=C(NCCOc1ccc(C(F)(F)F)cn1)c1ccccc1I [1-44] | 100 |  | 
O=C(NC1(COc2ccc(C(F)(F)F)cn2)CC1)c1ccccc1C(F)(F)F [1-173] | 100 | 100 | 
CC(COc1ncc(C(F)(F)F)cc1Cl)NC(=O)c1cn(C)nc1C(F)F (stereo not shown) [1.239, reference compound] |  |  | inhibition at 20 ppm (Cooperia curticei): 0%; inhibition at 20 ppm (Haemonchus contortus): 0%
CC(COc1ncc(C(F)(F)F)cc1Cl)NC(=O)c1ccccc1C(F)(F)F (stereo not shown) [1-4] | 90 | 100 | inhibition at 20 ppm (Cooperia curticei): 100%; inhibition at 20 ppm (Haemonchus contortus): 90%
COc1ncccc1C(=O)NCCOc1ncc(C(F)(F)F)cc1Cl [1-155] | 100 | 80 | 
O=C(NCCOc1ncc(C(F)(F)F)cc1Cl)c1ccccc1I [1-28] | 100 | 100 | 
O=C(NC1(COc2ccc(C(F)(F)F)cn2)CC1)c1ccccc1Br [1-176] | 90 | 90 | 
O=C(NCCOc1ncc(F)cc1F)c1ccccc1I [1-141] |  |  | nematicidal effect in % (formation of galls) (Meloidogyne incognita): 90%
O=C(NC1(COc2ccc(C(F)(F)F)cn2)CC1)c1c(F)cccc1F [1-168] | 90 | 100 | 
O=C(NCCOc1ncc(F)cc1F)c1ccccc1C(F)(F)F [1-134] |  |  | nematicidal effect in % (formation of galls) (Meloidogyne incognita): 90%
O=C(NCCOc1ncc(Cl)cc1Cl)c1ccccc1C(F)(F)F [1-20] | 100 |  | 
O=C(NC1(COc2ncc(C(F)(F)F)cc2Cl)CC1)c1ccccc1C(F)(F)F [1-169] | 80 | 80 | 
O=C(NCCOc1ncc(C(F)(F)F)cc1Cl)c1ccccc1C(F)(F)F [1-1] | 100 | 100 | 
O=C(NCCOc1ccc(C(F)(F)F)cn1)c1ccccc1C(F)(F)F [1-46] | 100 |  | 
O=C(NCCOc1ncc(C(F)(F)F)cc1Cl)c1ccccc1C(F)F [1-2] | 100 |  | 
O=C(NCCOc1ccc(Cl)cn1)c1ccccc1I [1-34] | 90 |  | 
O=C(NCCOc1ncc(Cl)cc1Cl)c1ccccc1F [1-15] | 80 |  | 

SMILES | effect (kill in %) (Haemonchus contortus) [%] | effect (kill in %) (Cooperia curticei; application rate 20 ppm) [%] | also measured
O=C(NCCOc1ncc(Cl)cc1Cl)c1c(F)cccc1F [1-19] | 90 |  | 
O=C(NCCOc1ncc(C(F)(F)F)cc1Cl)c1cccnc1C(F)(F)F [1-63] | 90 | 80 | nematicidal effect in % (formation of galls) (Meloidogyne incognita): 90%
N#Cc1cnc(OCCNC(=O)c2ccccc2C(F)(F)F)c(F)c1 [1-164] | 90 | 90 | nematicidal effect in % (formation of galls) (Meloidogyne incognita): 100%
O=C(NCCOc1ncc(C(F)(F)F)cc1Cl)c1ccccc1Br [1-27] | 100 | 90 | 
O=C(NCCOc1ncc(C(F)(F)F)cc1Cl)c1ccccc1[N+](=O)[O-] [1-53] | 100 |  | 
O=C(NC1(COc2ncc(C(F)(F)F)cc2Cl)CC1)c1ccccc1I [1-170] | 100 | 100 | nematicidal effect in % (formation of galls) (Meloidogyne incognita): 100%
O=C(NCCOc1ncc(Cl)cc1Cl)c1ccccc1Cl [1-16] | 100 |  | 
O=C(NCCOc1ccc(C(F)(F)F)cn1)c1sccc1Cl [1-49] |  |  | nematicidal effect in % (formation of galls) (Meloidogyne incognita): 90%
O=C(NCCOc1ccc(C(F)(F)F)cn1)c1cccnc1C(F)(F)F [1-57] | 80 |  | 
O=C(NCCOc1ccc(C(F)(F)F)cn1)c1ccccc1Cl [1-42] | 80 |  | 
O=C(NCCOc1ccc(C(F)(F)F)cn1)c1sccc1I [1-48] |  | 80 | 
CC(CNC(=O)c1ccccc1C(F)(F)F)Oc1ncc(C(F)(F)F)cc1Cl (stereo not shown) [1-25] | 100 | 90 | 
O=C(NC1(COc2ncc(C(F)(F)F)cc2Cl)CC1)c1c(F)cccc1F [1-167] | 80 |  | 
Cc1ccccc1C(=O)NCCOc1ncc(C(F)(F)F)cc1Cl [1-29] | 80 | 80 | 
O=C(NCCOc1ncc(C(F)(F)F)cc1Cl)c1c(F)cccc1F [1-52] | 90 |  | 
CC(C)(COc1ccc(C(F)(F)F)cn1)NC(=O)c1ccccc1C(F)(F)F [1-78] | 80 | 80 | 
O=C(NCCOc1ncc(Cl)cc1Cl)c1ccccc1I [1-18] | 100 |  | nematicidal effect in % (formation of galls) (Meloidogyne incognita): 80%
CC(C)(COc1ncc(Cl)cc1Cl)NC(=O)c1ccccc1C(F)(F)F [1-82] | 90 | 90 | 
O=C(NCCOc1ccc(Cl)cn1)c1c(F)cccc1F [1-35] | 80 |  | effect (kill in %) (Cooperia curticei; application rate 100 ppm): 80%
O=C(NCCOc1ccc(Cl)cn1)c1ccccc1C(F)(F)F [1-36] | 80 |  | effect (kill in %) (Cooperia curticei; application rate 100 ppm): 90%
O=C(NCCOc1ncc(F)cc1F)c1c(F)cccc1F [1-133] |  |  | nematicidal effect in % (formation of galls) (Meloidogyne incognita): 90%
O=C(NCCOc1ccc(C(F)(F)F)cn1)c1ccccc1Br [1-43] | 90 |  | 
O=C(NCCOc1ncc(Cl)cc1Cl)c1sccc1Cl [1-23] | 80 |  | 
O=C(NCCOc1ccc(Cl)cn1)c1ccccc1Br [1-33] | 80 |  | 
